Assay results as given in ChEMBL document CHEMBL1122355, “Quantitative structure-activity relationships for 2-[(phenylmethyl)sulfonyl]pyridine 1-oxide herbicides” (1983).

Experiments:
Format in all cases: functional
Echinochloa crus-galli = test: Herbicidal activity against barnyard grass (Echinochloa crusgalli L. Beauv.) as the dose required for 50% control
Setaria viridis = test: Herbicidal activity against green foxtail (Setaria viridis L. Beauv.) as the dose required for 50% control
Panicum virgatum = test: Herbicidal activity against Switch grass (Panicum virgatum L.) as the dose required for 50% control

Structure (SMILES) | -Log ED50 (Echinochloa crus-galli) | -Log ED50 (Setaria viridis) | -Log ED50 (Panicum virgatum)
O=S(=O)(Cc1ccccc1Cl)c1cccc[n+]1[O-] | 0.85 M acre-1 | 0.43 M acre-1 | 0.4 M acre-1
COc1ccc(Br)c(CS(=O)(=O)c2cccc[n+]2[O-])c1 | 0.6 M acre-1 | 0.5 M acre-1 | 0.95 M acre-1
CCc1ccc(CC)c(C(C)S(=O)(=O)c2cccc[n+]2[O-])c1 (centres undefined) | 1.15 M acre-1 | 1.05 M acre-1 | 1.15 M acre-1
O=S(=O)(Cc1c(Cl)cccc1Cl)c1cccc[n+]1[O-] | 0.96 M acre-1 | 0.74 M acre-1 | 0.74 M acre-1
CC(c1c(F)cccc1Cl)S(=O)(=O)c1cccc[n+]1[O-] (centres undefined) | 1.35 M acre-1 | 1.35 M acre-1 | 1.65 M acre-1
CC(C)c1ccc(CS(=O)(=O)c2cccc[n+]2[O-])cc1 | -0.1 M acre-1 | -0.1 M acre-1 | 0.62 M acre-1
CC(C)c1ccc(C(C)C)c(C(C)S(=O)(=O)c2cccc[n+]2[O-])c1 (centres undefined) | 0.78 M acre-1 | 0.19 M acre-1 | 0.19 M acre-1
O=S(=O)(Cc1ccc(-c2ccccc2)cc1)c1cccc[n+]1[O-] | -0.69 M acre-1 | -0.54 M acre-1 | -0.19 M acre-1
COc1ccc(C)cc1CS(=O)(=O)c1cccc[n+]1[O-] | 1.02 M acre-1 | 0.41 M acre-1 | 0.73 M acre-1
O=S(=O)(Cc1ccccc1)c1cccc[n+]1[O-] | 0.29 M acre-1 | 0.14 M acre-1 | 0.04 M acre-1
Cc1ccc(C)c(CS(=O)(=O)c2cccc[n+]2[O-])c1 | 1.09 M acre-1 | 0.39 M acre-1 | 0.99 M acre-1
Cc1ccc(Cl)c(C(C)S(=O)(=O)c2cccc[n+]2[O-])c1 (centres undefined) | 1.35 M acre-1 | 0.66 M acre-1 | 0.82 M acre-1
O=S(=O)(Cc1ccccc1I)c1cccc[n+]1[O-] | 0.52 M acre-1 | 0.22 M acre-1 | 0.32 M acre-1
O=S(=O)(Cc1ccccc1Oc1ccccc1)c1cccc[n+]1[O-] | -0.12 M acre-1 | -0.03 M acre-1 | 0.11 M acre-1
N#Cc1ccccc1CS(=O)(=O)c1cccc[n+]1[O-] | 0.18 M acre-1 | -0.01 M acre-1 | -0.22 M acre-1
CC(c1ccc(Cl)cc1)S(=O)(=O)c1cccc[n+]1[O-] (centres undefined) | 0.9 M acre-1 | 0.82 M acre-1 | 1.14 M acre-1
Cc1ccc(C)c(CS(=O)(=O)c2cccc[n+]2[O-])c1C | 0.7 M acre-1 | 0.7 M acre-1 | 0.7 M acre-1
CCCCOc1cccc(CS(=O)(=O)c2cccc[n+]2[O-])c1 | 0.15 M acre-1 | -0.15 M acre-1 | -0.15 M acre-1
CC(C)c1ccc(C(C)C)c(CS(=O)(=O)c2cccc[n+]2[O-])c1 | -0.02 M acre-1 | -0.02 M acre-1 | -0.02 M acre-1

Structure (SMILES) | -Log ED50 (Echinochloa crus-galli) | -Log ED50 (Setaria viridis) | -Log ED50 (Panicum virgatum)
CC(c1cc(Cl)ccc1Cl)S(=O)(=O)c1cccc[n+]1[O-] (centres undefined) | 1.07 M acre-1 | 0.86 M acre-1 | 1.07 M acre-1
Cc1cc(Cl)ccc1C(C)S(=O)(=O)c1cccc[n+]1[O-] (centres undefined) | 0.84 M acre-1 | 0.79 M acre-1 | 0.98 M acre-1
CC(c1cc(C(F)(F)F)ccc1Cl)S(=O)(=O)c1cccc[n+]1[O-] (centres undefined) | 0.91 M acre-1 | 0.63 M acre-1 | 1.26 M acre-1
O=S(=O)(Cc1ccccc1F)c1cccc[n+]1[O-] | 0.37 M acre-1 | 0.07 M acre-1 | 0.77 M acre-1
COc1cc(CS(=O)(=O)c2cccc[n+]2[O-])cc(OC)c1OC | -0.77 M acre-1 | -0.79 M acre-1 | -0.77 M acre-1
O=S(=O)(Cc1cccc(Br)c1)c1cccc[n+]1[O-] | 0.16 M acre-1 | -0.14 M acre-1 | 0.03 M acre-1
Cc1c(Cl)ccc(C(C)S(=O)(=O)c2cccc[n+]2[O-])c1Cl (centres undefined) | 0.68 M acre-1 | 0.89 M acre-1 | 1 M acre-1
COc1ccc(CS(=O)(=O)c2cccc[n+]2[O-])cc1OC | 0.13 M acre-1 | -0.01 M acre-1 | 0.23 M acre-1
Cc1ccc(C(F)(F)F)cc1C(C)S(=O)(=O)c1cccc[n+]1[O-] (centres undefined) | 0.79 M acre-1 | 1.09 M acre-1 | 1.09 M acre-1
Cc1ccc(C(C)C)cc1C(C)S(=O)(=O)c1cccc[n+]1[O-] (centres undefined) | 0.89 M acre-1 | 0.57 M acre-1 | 0.7 M acre-1
CC(c1ccc(S(C)(=O)=O)cc1)S(=O)(=O)c1cccc[n+]1[O-] (centres undefined) | -0.43 M acre-1 | -0.43 M acre-1 | -0.35 M acre-1
CC(c1cc(F)ccc1F)S(=O)(=O)c1cccc[n+]1[O-] (centres undefined) | 1.22 M acre-1 | 1.17 M acre-1 | 1.22 M acre-1
CC(c1cccc(Cl)c1F)S(=O)(=O)c1cccc[n+]1[O-] (centres undefined) | 1.36 M acre-1 | 1.05 M acre-1 | 1.24 M acre-1
CC(c1ccc([N+](=O)[O-])cc1)S(=O)(=O)c1cccc[n+]1[O-] (centres undefined) | 0.43 M acre-1 | 0.23 M acre-1 | 0.43 M acre-1
Cc1ccc(C)c(C(C)S(=O)(=O)c2cccc[n+]2[O-])c1 (centres undefined) | 1.3 M acre-1 | 1.25 M acre-1 | 1.25 M acre-1
O=S(=O)(Cc1c(Cl)ccc(Cl)c1Cl)c1cccc[n+]1[O-] | 0.81 M acre-1 | 0.49 M acre-1 | 0.81 M acre-1
Cc1ccccc1C(C)S(=O)(=O)c1cccc[n+]1[O-] (centres undefined) | 1.58 M acre-1 | 1.29 M acre-1 | 1.29 M acre-1
CC(c1cccc(C(F)(F)F)c1)S(=O)(=O)c1cccc[n+]1[O-] (centres undefined) | 0.46 M acre-1 | 0.77 M acre-1 | 1.37 M acre-1
Cc1ccc(C(C)S(=O)(=O)c2cccc[n+]2[O-])cc1C (centres undefined) | 1.31 M acre-1 | 1.07 M acre-1 | 1.24 M acre-1
